The target of this assay is PIM1 (Homo sapiens (Human), UniProt P11309). The experiment in a line: biochemical. The class given is biochemical. To be noted: 20 pM PIM1, 1 μM FAM-peptide, 10 μM ATP, 90 minutes at room temperature; read-out: PIM1 LC3K (KI).
PIM1, sequence (P11309 whole entry): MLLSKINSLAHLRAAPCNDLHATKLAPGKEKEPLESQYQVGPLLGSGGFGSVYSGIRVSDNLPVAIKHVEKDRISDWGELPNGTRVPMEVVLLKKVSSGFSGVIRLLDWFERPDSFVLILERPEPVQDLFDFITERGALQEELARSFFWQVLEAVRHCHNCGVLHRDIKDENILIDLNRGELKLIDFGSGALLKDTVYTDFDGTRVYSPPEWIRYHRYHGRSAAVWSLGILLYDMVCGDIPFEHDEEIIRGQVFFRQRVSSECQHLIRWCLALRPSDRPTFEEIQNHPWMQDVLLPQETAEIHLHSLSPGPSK

Experimental: Reaction Buffer contained 10 mM HEPES, pH 7.2, 10 mM MgCl2, 0.01% Tween 20, 2 mM DTT. Termination Buffer contained 190 mM HEPES, pH 7.2, 0.015% Brij-35, 0.2% Coating Reagent 3 (Caliper Life Sciences, Hopkinton, Mass.), 20 mM EDTA. Separation Buffer contained 100 mM HEPES, pH 7.2, 0.015% Brij-35, 0.1% Coating Reagent 3, 1:200 Coating Reagent 8 (Caliper Life Sciences, Hopkinton, Mass.), 10 mM EDTA and 5% DMSO.
PIM reactions were carried out in a final volume of 10 μL per well in a 384-well plate. […] After 90 minutes of incubation at room temperature, the phosphorylation reaction was stopped by the addition of 10 μL Termination Buffer. The product and substrate in each independent reaction were separated on a 12-sipper microfluidic chip (Caliper Life Sciences, Hopkinton, Mass.) run on a Caliper LC3000® (Caliper Life Sciences, Hopkinton, Mass.). The separation of product and substrate was optimized by choosing voltages and pressure using Caliper's Optimizer software (Hopkinton, Mass.). The separation conditions used a downstream voltage of −500V, an upstream voltage of −2150V, and a screening pressure of −1.2 psi. […] Substrate conversion was calculated from the electropherogram using HTS Well Analyzer software (Caliper Life Sciences, Hopkinton, Mass.). Ki values for the test compound were calculated.

For `COC1(c2cc(F)c(-c3nc(C(=O)Nc4cnn(C)c4[C@@H]4CC[C@@H](N)[C@@H](F)CO4)ccc3F)c(F)c2)COC1` [Example 203, N-(5-((2S,5R,6R)-5-amino-6-fluorooxepan-2-yl)-1-methyl-1H-pyrazol-4-yl)-6-(2,6-difluoro-4-(3-methoxyoxetan-3-yl)phenyl)-5-fluoropicolinamide], the inhibition constant Ki is 0.119 nM.
The value for `C[C@H](O)c1cc(F)c(-c2nc(C(=O)Nc3cnn(C)c3[C@@H]3CC[C@@H](N)[C@H](F)CO3)cs2)c(F)c1` [Example 305, N-(5-((2S,5R,6S)-5-amino-6-fluorooxepan-2-yl)-1-methyl-1H-pyrazol-4-yl)-2-(2,6-difluoro-4-((S)-1-hydroxyethyl)phenyl)thiazole-4-carboxamide] was 0.008 nM; that for `Cn1ncc(NC(=O)c2ccc(F)c(-c3c(F)cc(C4(O)COC4)cc3F)n2)c1[C@@H]1CC[C@@H](N)[C@H](F)CO1` [Example 193, N-(5-((2S,5R,6S)-5-amino-6-fluorooxepan-2-yl)-1-methyl-1H-pyrazol-4-yl)-6-(2,6-difluoro-4-(3-hydroxyoxetan-3-yl)phenyl)-5-fluoropicolinamide] was 0.034 nM; that for `Cc1noc(C)c1-c1nc(C(=O)Nc2cnn(C)c2[C@@H]2CC[C@@H](N)[C@H](F)CO2)cs1` [Example 234, N-(5-((2S,5R,6S)-5-amino-6-fluorooxepan-2-yl)-1-methyl-1H-pyrazol-4-yl)-2-(3,5-dimethylisoxazol-4-yl)thiazole-4-carboxamide] was 0.068 nM.
The value for `COc1cccc(-c2nc(C(=O)Nc3cnn(C)c3[C@@H]3CC[C@@H](N)[C@H](F)CO3)cs2)c1` [Example 357, N-(5-((2S,5R,6S)-5-amino-6-fluorooxepan-2-yl)-1-methyl-1H-pyrazol-4-yl)-2-(3-methoxyphenyl)thiazole-4-carboxamide] was 0.035 nM; that for `CO[C@H]1CO[C@H](c2c(NC(=O)c3csc(-c4c(F)ccc(F)c4F)n3)cnn2C)CC[C@H]1N` [Example 258, N-(5-((2S,5R,6R)-5-amino-6-methoxyoxepan-2-yl)-1-methyl-1H-pyrazol-4-yl)-2-(2,3,6-trifluorophenyl)thiazole-4-carboxamide] was 0.145 nM; that for `Cn1ncc(NC(=O)c2nc(-c3c(F)cccc3F)sc2N)c1[C@H]1CC[C@H](N)[C@@H](F)CO1` [Example 176, 5-Amino-N-[5-[(2R,5S,6R)-5-amino-6-fluoro-oxepan-2-yl]-1-methyl-pyrazol-4-yl]-2-(2,6-difluorophenyl)thiazole-4-carboxamide] was 0.595 nM.
The value for `Cc1nn(C)cc1-c1nc(C(=O)Nc2cnn(C)c2[C@@H]2CC[C@@H](N)[C@H](F)CO2)cs1` [Example 241, N-(5-((2S,5R,6S)-5-amino-6-fluorooxepan-2-yl)-1-methyl-1H-pyrazol-4-yl)-2-(1,3-dimethyl-1H-pyrazol-4-yl)thiazole-4-carboxamide] was 0.283 nM; that for `Cn1ncc(NC(=O)c2csc(-c3cccc(OCc4ccccc4)c3)n2)c1[C@@H]1CC[C@@H](N)[C@H](F)CO1` [Example 401, N-[5-[(2S,5R,6S)-5-amino-6-fluoro-oxepan-2-yl]-1-methyl-pyrazol-4-yl]-2-(3-benzyloxyphenyl)thiazole-4-carboxamide] was 0.447 nM; that for `Cn1ncc(NC(=O)c2csc(-c3ccc(C4(C)COC4)cc3F)n2)c1[C@@H]1CC[C@@H](N)[C@H](F)CO1` [Example 393, N-(5-((2S,5R,6S)-5-amino-6-fluorooxepan-2-yl)-1-methyl-1H-pyrazol-4-yl)-2-(2-fluoro-4-(3-methyloxetan-3-yl)phenyl)thiazole-4-carboxamide] was 0.003 nM.
For the compound `Cn1ncc(NC(=O)c2ccc(F)c(-c3c(F)cc(OC4CCOCC4)cc3F)n2)c1[C@@H]1CC[C@@H](N)[C@H](F)CO1` [Example 197, N-(5-((2S,5R,6S)-5-Amino-6-fluorooxepan-2-yl)-1-methyl-1H-pyrazol-4-yl)-6-(2,6-difluoro-4-((tetrahydro-2H-pyran-4-yl)oxy)phenyl)-5-fluoropicolinamide], the Ki stood at 0.018 nM.
As for `Cn1ncc(NC(=O)c2csc(-c3c(F)cc(C(C)(F)F)cc3F)n2)c1[C@@H]1CC[C@@H](N)[C@H](F)CO1` [Example 394, N-(5-((2S,5R,6S)-5-amino-6-fluorooxepan-2-yl)-1-methyl-1H-pyrazol-4-yl)-2-(4-(1,1-difluoroethyl)-2,6-difluorophenyl)thiazole-4-carboxamide], the figure is 0.018 nM.
Regarding `Cn1ncc(NC(=O)c2nc(-c3c(F)cccc3F)sc2N)c1[C@H]1C[C@H](F)[C@@H](N)CCO1` [Example 137, 5-amino-N-(5-((2R,4S,5S)-5-amino-4-fluorooxepan-2-yl)-1-methyl-1H-pyrazol-4-yl)-2-(2,6-difluorophenyl)thiazole-4-carboxamide], the Ki worked out at 0.099 nM.
As for `Cn1ncc(NC(=O)c2csc(-c3cnn(CC(C)(C)O)c3)n2)c1[C@@H]1CC[C@@H](N)[C@H](F)CO1` [Example 228, N-(5-((2S,5R,6S)-5-amino-6-fluorooxepan-2-yl)-1-methyl-1H-pyrazol-4-yl)-2-(1-(2-hydroxy-2-methylpropyl)-1H-pyrazol-4-yl)thiazole-4-carboxamide], the figure is 0.124 nM.
In the case of `Cn1ncc(NC(=O)c2nc(-c3c(F)cccc3F)sc2N)c1[C@H]1C[C@@H](O)CCO1` [Example 149, 5-amino-2-(2,6-difluorophenyl)-N-(5-((2R,4S)-4-hydroxytetrahydro-2H-pyran-2-yl)-1-methyl-1H-pyrazol-4-yl)thiazole-4-carboxamide], the Ki came out at 0.174 nM.
The value for `Cn1cc(-c2nc(C(=O)Nc3cnn(C)c3[C@@H]3CC[C@@H](N)[C@@H](F)CO3)cs2)c(C(F)(F)F)n1` [Example 252, N-(5-((2S,5R,6R)-5-amino-6-fluorooxepan-2-yl)-1-methyl-1H-pyrazol-4-yl)-2-(1-methyl-3-(trifluoromethyl)-1H-pyrazol-4-yl)thiazole-4-carboxamide] was 0.281 nM; that for `Cn1ncc(NC(=O)c2csc(-c3cc(Cl)ccc3F)n2)c1[C@@H]1CC[C@@H](N)[C@H](F)CO1` [Example 302, N-(5-((2S,5R,6S)-5-amino-6-fluorooxepan-2-yl)-1-methyl-1H-pyrazol-4-yl)-2-(5-chloro-2-fluorophenyl)thiazole-4-carboxamide] was 0.031 nM; that for `Cn1ncc(NC(=O)c2csc(-n3cccn3)n2)c1[C@@H]1CC[C@@H](N)[C@H](F)CO1` [Example 388, N-(5-((2S,5R,6S)-5-amino-6-fluorooxepan-2-yl)-1-methyl-1H-pyrazol-4-yl)-2-(1H-pyrazol-1-yl)thiazole-4-carboxamide] was 0.157 nM.
For `COC1(c2c(NC(=O)c3nc(-c4c(F)cccc4F)sc3N)cnn2C)CCCCO1` (stereo not shown) [Example 103, 5-amino-2-(2,6-difluorophenyl)-N-[5-(2-methoxytetrahydropyran-2-yl)-1-methyl-pyrazol-4-yl]thiazole-4-carboxamide], the Ki was 0.209 nM.
On to `Cn1ncc(NC(=O)c2nc(-c3ccncc3F)sc2N)c1[C@@H]1CC[C@@H](N)[C@@H](F)CO1` [Example 182, 5-Amino-N-[5-[(2S,5R,6R)-5-amino-6-fluoro-oxepan-2-yl]-1-methyl-pyrazol-4-yl]-2-(3-fluoro-4-pyridyl)thiazole-4-carboxamide], for which the Ki stood at 0.051 nM.
The value for `COCCOc1cc(F)c(-c2nc(C(=O)Nc3cnn(C)c3[C@@H]3CC[C@@H](N)[C@H](O)CO3)ccc2F)c(F)c1` [Example 191, N-(5-((2S,5R,6S)-5-Amino-6-hydroxyoxepan-2-yl)-1-methyl-1H-pyrazol-4-yl)-6-(2,6-difluoro-4-(2-methoxyethoxy)phenyl)-5-fluoropicolinamide] was 0.056 nM; that for `Cn1ncc(NC(=O)c2nc(-c3cnn(C)c3C(F)(F)F)sc2N)c1[C@@H]1CC[C@@H](N)[C@H](F)CO1` [Example 282, 5-amino-N-(5-((2S,5R,6S)-5-amino-6-fluorooxepan-2-yl)-1-methyl-1H-pyrazol-4-yl)-2-(1-methyl-5-(trifluoromethyl)-1H-pyrazol-4-yl)thiazole-4-carboxamide] was 0.058 nM; that for `Cn1ncc(NC(=O)c2csc(-c3cccc(F)c3F)n2)c1[C@@H]1CC[C@@H](N)[C@H](F)CO1` [Example 306, N-(5-((2S,5R,6S)-5-amino-6-fluorooxepan-2-yl)-1-methyl-1H-pyrazol-4-yl)-2-(2,3-difluorophenyl)thiazole-4-carboxamide] was 0.044 nM.
Consider `Cn1ncc(NC(=O)c2csc(-c3cncc(F)c3)n2)c1[C@@H]1CC[C@@H](N)[C@@H](F)CO1` [Example 246, N-(5-((2S,5R,6R)-5-amino-6-fluorooxepan-2-yl)-1-methyl-1H-pyrazol-4-yl)-2-(5-fluoropyridin-3-yl)thiazole-4-carboxamide], for which the Ki was 5.76 nM.
Turning to `Cn1ncc(NC(=O)c2nc(-c3c(F)cccc3F)sc2N)c1C1C[C@H](N)[C@@H](F)CCO1` (stereo partly drawn) [Example 130, 5-amino-N-(5-((4S,5S)-4-amino-5-fluorooxepan-2-yl)-1-methyl-1H-pyrazol-4-yl)-2-(2,6-difluorophenyl)thiazole-4-carboxamide], the Ki was 0.358 nM.
Turning to `Cn1ncc(NC(=O)c2nc(-c3c(F)cccc3C(F)(F)F)sc2N)c1[C@@H]1CC[C@@H](N)[C@H](F)CO1` [Example 331, 5-amino-N-(5-((2S,5R,6S)-5-amino-6-fluorooxepan-2-yl)-1-methyl-1H-pyrazol-4-yl)-2-(2-fluoro-6-(trifluoromethyl)phenyl)thiazole-4-carboxamide], the Ki worked out at 0.104 nM.
The value for `CO[C@H]1CCC(c2c(NC(=O)c3nc(-c4c(F)cccc4F)sc3N)cnn2C)OC[C@@H]1N` (stereo partly drawn) [Example 123, 5-amino-N-(5-((5S,6S)-6-amino-5-methoxyoxepan-2-yl)-1-methyl-1H-pyrazol-4-yl)-2-(2,6-difluorophenyl)thiazole-4-carboxamide] was 0.125 nM.
The value for `CC(C)n1cc(-c2nc(C(=O)Nc3cnn(C)c3[C@@H]3CC[C@@H](N)[C@@H](F)CO3)c(N)s2)cn1` [Example 256, 5-amino-N-(5-((2S,5R,6R)-5-amino-6-fluorooxepan-2-yl)-1-methyl-1H-pyrazol-4-yl)-2-(1-isopropyl-1H-pyrazol-4-yl)thiazole-4-carboxamide] was 0.093 nM.
